The EC50 is the concentration giving half of the maximal effect.

22 compounds from patent US20170369492A1 (Takeda Pharmaceutical Company Limited, priority 2014, published 2017) can be followed below.

This experiment addresses T1, human GPR43 (Homo sapiens, UniProt O15552).
T1 construct: expressed in transfected cells
T1 sequence (O15552 1-330): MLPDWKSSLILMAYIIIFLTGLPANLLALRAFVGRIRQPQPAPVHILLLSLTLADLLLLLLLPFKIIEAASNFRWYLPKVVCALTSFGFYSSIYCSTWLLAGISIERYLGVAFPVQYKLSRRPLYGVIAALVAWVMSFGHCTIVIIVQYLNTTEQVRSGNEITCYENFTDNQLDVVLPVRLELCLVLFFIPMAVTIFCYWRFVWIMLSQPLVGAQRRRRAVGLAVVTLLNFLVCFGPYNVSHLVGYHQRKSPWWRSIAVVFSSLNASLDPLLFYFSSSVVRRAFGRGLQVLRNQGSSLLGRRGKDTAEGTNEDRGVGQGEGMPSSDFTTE
Put plainly: Ca-Flux Functional Assay: Determination of Agonist/Positive Allosteric Modulator (PAM) Activity. In kind it is cell-based. Conditions: CHO-K1 Gα16 cells stably expressing human GPR43; compound added in the presence of EC20 sodium acetate; intracellular Ca2+ by FLIPR; agonist/PAM activity not distinguished. Summed up:
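FLIPR calcium read in CHO-K1 Gα16 cells stably expressing human GPR43, loaded with Calcium 5 dye in HBSS/HEPES/probenecid/BSA for 1 h at 37 °C. Compounds were tested in 10-point half-log series from 10 μM, co-added with sodium acetate at its EC20. EC50 taken from duplicate-well curves, capturing agonist or PAM activity without distinction.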

Structures are written as SMILES.

For `Nc1c(S(=O)(=O)N2Cc3ccccc3C2)c2nccnc2n1C1CCCCC1` [Example 97, 5-cyclohexyl-7-(2,3-dihydro-1H-isoindole-2-sulfonyl)-5H-pyrrolo[2,3-b]pyrazin-6-amine], the EC50 is 173 nM.

For `Nc1c(S(=O)(=O)N2CCN(C(=O)c3ccc(F)cc3)CC2)c2nccnc2n1C1CCCCC1` [Example 98, 5-cyclohexyl-7-{4-[(4-fluorophenyl)carbonyl]piperazine-1-sulfonyl}-5H-pyrrolo[2,3-b]pyrazin-6-amine], the 50% effective concentration (EC50) stood at 2810 nM.

`Nc1c(S(=O)(=O)N2CC(Oc3ccccc3)C2)c2nccnc2n1C1CCCCC1` [Example 99, 5-cyclohexyl-7-(3-phenoxyazetidine-1-sulfonyl)-5H-pyrrolo[2,3-b]pyrazin-6-amine]: the EC50 turned out to be 1550 nM.

As for `Nc1c(S(=O)(=O)N2CC(N3CCCCC3)C2)c2nccnc2n1C1CCCCC1` [Example 100, 5-cyclohexyl-7-[3-(piperidin-1-yl)azetidine-1-sulfonyl]-5H-pyrrolo[2,3-b]pyrazin-6-amine], the EC50 came out at 3930 nM.

As to `Nc1c(S(=O)(=O)N2CC(n3cccn3)C2)c2nccnc2n1C1CCCCC1` [Example 101, 5-cyclohexyl-7-[3-(1H-pyrazol-1-yl)azetidine-1-sulfonyl]-5H-pyrrolo[2,3-b]pyrazin-6-amine], the EC50 was 7030 nM.

For `CC1CCCN(S(=O)(=O)c2c(N)n(C3CCCCC3)c3nccnc23)C1` (stereo not shown) [Example 102, 5-cyclohexyl-7-(3-methylpiperidine-1-sulfonyl)-5H-pyrrolo[2,3-b]pyrazin-6-amine], the EC50 is 258 nM.

`Nc1c(S(=O)(=O)NCCc2nccs2)c2nccnc2n1C1CCCCC1` [Example 103, 6-amino-5-cyclohexyl-N-[2-(1,3-thiazol-2-yl)ethyl]-5H-pyrrolo[2,3-b]pyrazine-7-sulfonamide]: the EC50 was 471 nM.

`Nc1c(S(=O)(=O)N2C3CCC2CC(O)C3)c2nccnc2n1C1CCCCC1` (stereo not shown) [Example 104, 8-{6-amino-5-cyclohexyl-5H-pyrrolo[2,3-b]pyrazine-7-sulfonyl}-8-azabicyclo[3.2.1]octan-3-ol]: the EC50 is 3080 nM.

On to `Nc1c(S(=O)(=O)N2CCN(CC(F)(F)F)CC2)c2nccnc2n1C1CCCCC1` [Example 105, 5-cyclohexyl-7-[4-(2,2,2-trifluoroethyl)-piperazine-1-sulfonyl]-5H-pyrrolo[2,3-b]pyrazin-6-amine], for which the EC50 was 647 nM.

For `Nc1c(S(=O)(=O)N2CCC(CO)CC2)c2nccnc2n1C1CCCCC1` [Example 106, (1-{6-amino-5-cyclohexyl-5H-pyrrolo[2,3-b]pyrazine-7-sulfonyl}piperidin-4-yl)methanol], the EC50 was 3050 nM.

For the compound `Nc1c(S(=O)(=O)N2CCC(OCC3CC3)CC2)c2nccnc2n1C1CCCCC1` [Example 107, 5-cyclohexyl-7-[4-(cyclopropylmethoxy)piperidine-1-sulfonyl]-5H-pyrrolo[2,3-b]pyrazin-6-amine], the EC50 came out at 320 nM.

Regarding `COc1ccc(S(=O)(=O)c2c(N)n(C3CCCCC3)c3nccnc23)cc1` [Example 108, 5-cyclohexyl-7-[(4-methoxybenzene)-sulfonyl]-5H-pyrrolo[2,3-b]pyrazin-6-amine], the EC50 was 78 nM.

As for `Nc1c(S(=O)(=O)C2CC2)c2nccnc2n1C1CCCCC1` [Example 109, 5-cyclohexyl-7-(cyclopropanesulfonyl)-5H-pyrrolo[2,3-b]pyrazin-6-amine], the EC50 stood at 2900 nM.

As for `Nc1c(S(=O)(=O)c2cccc(F)c2)c2nccnc2n1C1CCCCC1` [Example 110, 5-cyclohexyl-7-[(3-fluorobenzene)sulfonyl]-5H-pyrrolo[2,3-b]pyrazin-6-amine], the EC50 came to 343 nM.

In the case of `Nc1c(S(=O)(=O)c2ccccc2F)c2nccnc2n1C1CCCCC1` [Example 111, 5-cyclohexyl-7-[(2-fluorobenzene)sulfonyl]-5H-pyrrolo[2,3-b]pyrazin-6-amine], the EC50 is 209 nM.

In the case of `COc1cccc(S(=O)(=O)c2c(N)n(C3CCCCC3)c3nccnc23)c1` [Example 112, 5-cyclohexyl-7-[(3-methoxybenzene)-sulfonyl]-5H-pyrrolo[2,3-b]pyrazin-6-amine], the EC50 stood at 295 nM.

For the compound `N#Cc1ccc(S(=O)(=O)c2c(N)n(C3CCCCC3)c3nccnc23)cc1` [Example 113, 4-{6-amino-5-cyclohexyl-5H-pyrrolo[2,3-b]pyrazine-7-sulfonyl}benzonitrile], the EC50 came to 486 nM.

Take `COc1ccc(S(=O)(=O)c2c(N)n(C3CCCCC3)c3nccnc23)cc1Cl` [Example 114, 7-[(3-chloro-4-methoxybenzene)-sulfonyl]-5-cyclohexyl-5H-pyrrolo[2,3-b]pyrazin-6-amine]: the EC50 came to 206 nM.

As for `COc1ccc(S(=O)(=O)c2c(N)n(C3CCCCC3)c3nccnc23)cn1` [Example 115, 5-cyclohexyl-7-(6-methoxypyridine-3-sulfonyl)-5H-pyrrolo[2,3-b]pyrazin-6-amine], the EC50 stood at 4560 nM.

Consider `Nc1c(S(=O)(=O)c2ccc(OC(F)(F)F)cc2)c2nccnc2n1C1CCCCC1` [Example 116, 5-cyclohexyl-7-{[4-(trifluoromethoxy)-benzene]sulfonyl}-5H-pyrrolo[2,3-b]pyrazin-6-amine], for which the EC50 was found to be 1080 nM.

As for `Nc1c(S(=O)(=O)c2ccc3c(c2)OCCO3)c2nccnc2n1C1CCCCC1` [Example 117, 5-cyclohexyl-7-(2,3-dihydro-1,4-benzodioxine-6-sulfonyl)-5H-pyrrolo[2,3-b]pyrazin-6-amine], the EC50 stood at 124 nM.

For `Nc1c(S(=O)(=O)c2ccc(OC(F)F)cc2)c2nccnc2n1C1CCCCC1` [Example 118, 5-cyclohexyl-7-{[4-(difluoromethoxy)-benzene]sulfonyl}-5H-pyrrolo[2,3-b]pyrazin-6-amine], the EC50 was found to be 177 nM.
